Experimental data from ChEMBL document CHEMBL1201862, “PubChem BioAssay data set” (2004).
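Interpolation was linear, between the two tested concentrations surrounding the appropriate level; five concentrations were tested over 48 hours in 96-well plates. The concentration for 50% growth inhibition is given as GI50.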 Calls of active or inactive are those of the source. Rule as the data show it: active = GI50 up to about 1.1 µM and inactive = higher.

What was measured:
Test in all cases: NCI tumour cell line growth inhibition, 48 h
K562 = test system: K562
HT-29 = test system: HT-29
M19-MEL = test system: M19-MEL
LOX IMVI = test system: LOX IMVI
HCT-116 = test system: HCT-116
EKVX = test system: EKVX
NCI-H460 = test system: NCI-H460
786-0 = test system: 786-0
HOP-62 = test system: HOP-62
SN12C = test system: SN12C
OVCAR-3 = test system: OVCAR-3
CCRF-CEM = test system: CCRF-CEM
DMS-114 = test system: DMS-114
U-251 = test system: U-251
SK-MEL-2 = test system: SK-MEL-2
SK-MEL-5 = test system: SK-MEL-5
RPMI-8226 = test system: RPMI-8226
UACC-62 = test system: UACC-62
RXF 631 = test system: RXF 631
NCI-H226 = test system: NCI-H226
UO-31 = test system: UO-31
SF-539 = test system: SF-539
DMS-273 = test system: DMS-273
SK-MEL-28 = test system: SK-MEL-28
M14 = test system: M14
A549 = test system: A549
IGROV-1 = test system: IGROV-1
HOP-18 = test system: HOP-18
HCC 2998 = test system: HCC 2998
SW-620 = test system: SW-620
Malme-3M = test system: Malme-3M
RXF 393 = test system: RXF 393
HCT-15 = test system: HCT-15
SF-295 = test system: SF-295
MOLT-4 = test system: MOLT-4
OVCAR-4 = test system: OVCAR-4
SNB-75 = test system: SNB-75
SNB-78 = test system: SNB-78
LXFL 529 = test system: LXFL 529
ACHN = test system: ACHN
CAKI-1 = test system: CAKI-1
UACC-257 = test system: UACC-257
NCI-H522 = test system: NCI-H522
SNB-19 = test system: SNB-19
OVCAR-8 = test system: OVCAR-8
A498 = test system: A498
SF-268 = test system: SF-268
SK-OV-3 = test system: SK-OV-3
HL-60 = test system: HL-60
KM12 = test system: KM12
COLO 205 = test system: COLO 205
KM-20L2 = test system: KM-20L2
DLD-1 = test system: DLD-1
NCI-H23 = test system: NCI-H23
HOP-92 = test system: HOP-92
OVCAR-5 = test system: OVCAR-5
TK-10 = test system: TK-10
SR = test system: SR

## N#Cc1c2c(c(N=P(c3ccccc3)(c3ccccc3)c3ccccc3)n3c1nc1ccccc13)CCCC2
K562
  GI50: 4.76 µM (inactive)
HT-29
  GI50: 14.7 µM (inactive)
M19-MEL
  GI50: 18 µM (inactive)
LOX IMVI
  GI50: 16.7 µM (inactive)
HCT-116
  GI50: 17.6 µM (inactive)
EKVX
  GI50: 20 µM (inactive)
NCI-H460
  GI50: 13.3 µM (inactive)
786-0
  GI50: 44 µM (inactive)
HOP-62
  GI50: 19 µM (inactive)
SN12C
  GI50: 13.1 µM (inactive)
OVCAR-3
  GI50: 15.3 µM (inactive)
CCRF-CEM
  GI50: 16.7 µM (inactive)
DMS-114
  GI50: 21.5 µM (inactive)
U-251
  GI50: 14.4 µM (inactive)
SK-MEL-2
  GI50: 16.6 µM (inactive)
SK-MEL-5
  GI50: 10.8 µM (inactive)
RPMI-8226
  GI50: 14.8 µM (inactive)
UACC-62
  GI50: 12.1 µM (inactive)
RXF 631
  GI50: 29 µM (inactive)
NCI-H226
  GI50: 3.68 µM (inactive)
UO-31
  GI50: 12.4 µM (inactive)
SF-539
  GI50: 45.1 µM (inactive)
DMS-273
  GI50: 14.5 µM (inactive)
SK-MEL-28
  GI50: 43.7 µM (inactive)
M14
  GI50: 30.8 µM (inactive)
A549
  GI50: 21.3 µM (inactive)
IGROV-1
  GI50: 29.2 µM (inactive)
HOP-18
  GI50: 25.9 µM (inactive)
HCC 2998
  GI50: 26.3 µM (inactive)
SW-620
  GI50: 20.8 µM (inactive)
Malme-3M
  GI50: 36 µM (inactive)
RXF 393
  GI50: 46.2 µM (inactive)
HCT-15
  GI50: 20.7 µM
SF-295
  GI50: 12.8 µM (inactive)
MOLT-4
  GI50: 19.6 µM (inactive)
OVCAR-4
  GI50: 23.4 µM (inactive)
SNB-75
  GI50: 24.5 µM (inactive)
SNB-78
  GI50: 21.3 µM (inactive)
LXFL 529
  GI50: 20.6 µM (inactive)
ACHN
  GI50: 15.7 µM (inactive)
CAKI-1
  GI50: 30 µM (inactive)
UACC-257
  GI50: 15.5 µM (inactive)
NCI-H522
  GI50: 14.3 µM (inactive)
SNB-19
  GI50: 11.9 µM (inactive)
OVCAR-8
  GI50: 13 µM (inactive)
A498
  GI50: 20.2 µM (inactive)
SF-268
  GI50: > 100 µM (inactive)
SK-OV-3
  GI50: 40.9 µM (inactive)
HL-60
  GI50: 3.86 µM (inactive)
KM12
  GI50: 17.4 µM (inactive)
COLO 205
  GI50: 11.5 µM (inactive)
KM-20L2
  GI50: 17.4 µM (inactive)
DLD-1
  GI50: 32.8 µM (inactive)

## O=C1C2=C(C(c3ccccc3)=C1c1ccccc1)c1ccccc1C1(c3ccccc3)C2=C(O)C(c2ccccc2)=C1c1ccccc1 (centres undefined)
HT-29
  GI50: > 100 µM (inactive)
M19-MEL
  GI50: > 100 µM (inactive)
LOX IMVI
  GI50: > 100 µM (inactive)
HCT-116
  GI50: > 100 µM (inactive)
EKVX
  GI50: > 100 µM (inactive)
NCI-H460
  GI50: > 100 µM (inactive)
786-0
  GI50: > 100 µM (inactive)
HOP-62
  GI50: > 100 µM (inactive)
SN12C
  GI50: > 100 µM (inactive)
OVCAR-3
  GI50: > 100 µM (inactive)
DMS-114
  GI50: > 100 µM (inactive)
U-251
  GI50: > 100 µM (inactive)
SK-MEL-2
  GI50: > 100 µM (inactive)
SK-MEL-5
  GI50: > 100 µM (inactive)
RPMI-8226
  GI50: > 100 µM (inactive)
UACC-62
  GI50: > 100 µM (inactive)
RXF 631
  GI50: > 100 µM (inactive)
NCI-H226
  GI50: > 100 µM (inactive)
NCI-H23
  GI50: > 100 µM (inactive)
UO-31
  GI50: > 100 µM (inactive)
SF-539
  GI50: > 100 µM (inactive)
DMS-273
  GI50: > 100 µM (inactive)
SK-MEL-28
  GI50: > 100 µM (inactive)
M14
  GI50: > 100 µM (inactive)
A549
  GI50: > 100 µM (inactive)
IGROV-1
  GI50: > 100 µM (inactive)
HOP-18
  GI50: > 100 µM (inactive)
HCC 2998
  GI50: > 100 µM (inactive)
SW-620
  GI50: > 100 µM (inactive)
HOP-92
  GI50: > 100 µM (inactive)
Malme-3M
  GI50: > 100 µM (inactive)
RXF 393
  GI50: > 100 µM (inactive)
HCT-15
  GI50: > 100 µM
SF-295
  GI50: > 100 µM (inactive)
OVCAR-5
  GI50: > 100 µM (inactive)
MOLT-4
  GI50: > 100 µM (inactive)
TK-10
  GI50: > 100 µM (inactive)
OVCAR-4
  GI50: > 100 µM (inactive)
SNB-75
  GI50: > 100 µM (inactive)
SNB-78
  GI50: > 100 µM (inactive)
LXFL 529
  GI50: > 100 µM (inactive)
ACHN
  GI50: > 100 µM (inactive)
CAKI-1
  GI50: > 100 µM (inactive)
UACC-257
  GI50: > 100 µM (inactive)
NCI-H522
  GI50: > 100 µM (inactive)
SR
  GI50: > 100 µM (inactive)
OVCAR-8
  GI50: > 100 µM (inactive)
A498
  GI50: > 100 µM (inactive)
SF-268
  GI50: > 100 µM (inactive)
SK-OV-3
  GI50: > 100 µM (inactive)
HL-60
  GI50: > 100 µM (inactive)
KM12
  GI50: > 100 µM (inactive)
COLO 205
  GI50: > 100 µM (inactive)
KM-20L2
  GI50: > 100 µM (inactive)
DLD-1
  GI50: > 100 µM (inactive)

## O=C1CCC(c2nc3ccccc3o2)C(=O)N1 (centres undefined)
K562
  GI50: > 100 µM (inactive)
HT-29
  GI50: > 100 µM (inactive)
M19-MEL
  GI50: > 100 µM (inactive)
LOX IMVI
  GI50: > 100 µM (inactive)
HCT-116
  GI50: > 100 µM (inactive)
EKVX
  GI50: > 100 µM (inactive)
NCI-H460
  GI50: > 100 µM (inactive)
786-0
  GI50: > 100 µM (inactive)
HOP-62
  GI50: > 100 µM (inactive)
SN12C
  GI50: > 100 µM (inactive)
OVCAR-3
  GI50: > 100 µM (inactive)
CCRF-CEM
  GI50: > 100 µM (inactive)
DMS-114
  GI50: > 100 µM (inactive)
U-251
  GI50: > 100 µM (inactive)
SK-MEL-2
  GI50: > 100 µM (inactive)
SK-MEL-5
  GI50: > 100 µM (inactive)
UACC-62
  GI50: > 100 µM (inactive)
RXF 631
  GI50: > 100 µM (inactive)
NCI-H226
  GI50: > 100 µM (inactive)
NCI-H23
  GI50: > 100 µM (inactive)
UO-31
  GI50: > 100 µM (inactive)
SF-539
  GI50: > 100 µM (inactive)
DMS-273
  GI50: > 100 µM (inactive)
SK-MEL-28
  GI50: > 100 µM (inactive)
M14
  GI50: > 100 µM (inactive)
A549
  GI50: > 100 µM (inactive)
IGROV-1
  GI50: > 100 µM (inactive)
HOP-18
  GI50: > 100 µM (inactive)
HCC 2998
  GI50: > 100 µM (inactive)
SW-620
  GI50: > 100 µM (inactive)
HOP-92
  GI50: > 100 µM (inactive)
Malme-3M
  GI50: > 100 µM (inactive)
RXF 393
  GI50: > 100 µM (inactive)
HCT-15
  GI50: > 100 µM
SF-295
  GI50: > 100 µM (inactive)
MOLT-4
  GI50: > 100 µM (inactive)
TK-10
  GI50: > 100 µM (inactive)
OVCAR-4
  GI50: > 100 µM (inactive)
SNB-75
  GI50: 79.1 µM (inactive)
SNB-78
  GI50: > 100 µM (inactive)
LXFL 529
  GI50: > 100 µM (inactive)
ACHN
  GI50: > 100 µM (inactive)
CAKI-1
  GI50: > 100 µM (inactive)
UACC-257
  GI50: > 100 µM (inactive)
NCI-H522
  GI50: > 100 µM (inactive)
SR
  GI50: > 100 µM (inactive)
SNB-19
  GI50: > 100 µM (inactive)
OVCAR-8
  GI50: > 100 µM (inactive)
A498
  GI50: > 100 µM (inactive)
SF-268
  GI50: > 100 µM (inactive)
SK-OV-3
  GI50: > 100 µM (inactive)
HL-60
  GI50: > 100 µM (inactive)
KM12
  GI50: > 100 µM (inactive)
COLO 205
  GI50: > 100 µM (inactive)
KM-20L2
  GI50: > 100 µM (inactive)
DLD-1
  GI50: > 100 µM (inactive)
